PubChem BioAssay AID248 (DTP/NCI, 2004)
Where “and” joins values, the source holds several entries; their conditions need not be identical. Identical values can stand only once. Inconclusive results and toxic doses are left out. Rule as the data show it: active = T/C of 150% or more; inactive = T/C below 125%.

System: L1210 leukemia ip in BDF1 mice, survival T/C
Test: NCI In Vivo Anticancer Drug Screen. Data for tumor model L1210 Leukemia (intraperitoneal) in B6D2F1 (BDF1) mice
Settings: endpoint: mean survival time, higher = longer survival
Method in brief: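 Read-out is survival time, reported as the treated-group measurement over the vehicle-control measurement.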

[1] = dose: 100.0 mg/kg/injection, schedule: Q01DX001 (ip), vehicle: saline
[2] = dose: 200.0 mg/kg/injection, schedule: Q01DX001 (ip), vehicle: saline
[3] = dose: 100.0 mg/kg/injection, schedule: Q04DX003 (ip), vehicle: Klucel (hydroxypropylcellulose) (HPC)
[4] = dose: 200.0 mg/kg/injection, schedule: Q04DX003 (ip), vehicle: Klucel (hydroxypropylcellulose) (HPC)
[5] = dose: 100.0 mg/kg/injection, schedule: Q01DX009 (ip), vehicle: saline
[6] = dose: 200.0 mg/kg/injection, schedule: Q01DX009 (ip), vehicle: saline
[7] = dose: 100.0 mg/kg/injection, schedule: Q04DX003 (ip), vehicle: saline with Tween-80
[8] = dose: 200.0 mg/kg/injection, schedule: Q04DX003 (ip), vehicle: saline with Tween-80
[9] = dose: 400.0 mg/kg/injection, schedule: Q04DX003 (ip), vehicle: saline with Tween-80
[10] = dose: 100.0 mg/kg/injection, schedule: Q01DX001 (ip), vehicle: saline with Tween-80
[11] = dose: 200.0 mg/kg/injection, schedule: Q01DX001 (ip), vehicle: saline with Tween-80
[12] = dose: 400.0 mg/kg/injection, schedule: Q01DX001 (ip), vehicle: saline with Tween-80
[13] = dose: 100.0 mg/kg/injection, schedule: Q01DX009 (ip), vehicle: Klucel (hydroxypropylcellulose) (HPC)
[14] = dose: 200.0 mg/kg/injection, schedule: Q01DX009 (ip), vehicle: Klucel (hydroxypropylcellulose) (HPC)
[15] = dose: 100.0 mg/kg/injection, schedule: Q01DX009 (ip), vehicle: saline with Tween-80
[16] = dose: 200.0 mg/kg/injection, schedule: Q01DX009 (ip), vehicle: saline with Tween-80
[17] = dose: 400.0 mg/kg/injection, schedule: Q01DX009 (ip), vehicle: Klucel (hydroxypropylcellulose) (HPC)
[18] = dose: 400.0 mg/kg/injection, schedule: Q01DX009 (ip), vehicle: saline with Tween-80
[19] = dose: 400.0 mg/kg/injection, schedule: Q04DX003 (ip), vehicle: Klucel (hydroxypropylcellulose) (HPC)
[20] = dose: 50.0 mg/kg/injection, schedule: Q01DX009 (ip), vehicle: saline with Tween-80
[21] = dose: 100.0 mg/kg/injection, schedule: Q04DX002 (ip), vehicle: saline with Tween-80
[22] = dose: 200.0 mg/kg/injection, schedule: Q04DX002 (ip), vehicle: saline with Tween-80
[23] = dose: 400.0 mg/kg/injection, schedule: Q04DX002 (ip), vehicle: saline with Tween-80
[24] = dose: 400.0 mg/kg/injection, schedule: Q01DX001 (ip), vehicle: saline

Measured: T/C

C=CC(C)=O.C=CC(C)=O.C=CC(C)=O.[W]
inactive: dose: 100.0 mg/kg/injection, schedule: Q04DX003 (ip), vehicle: other 94 % of control | dose: 200.0 mg/kg/injection, schedule: Q04DX003 (ip), vehicle: other 92 % of control | dose: 400.0 mg/kg/injection, schedule: Q04DX003 (ip), vehicle: other 97 % of control

O=C(O)c1cccnn1
inactive: [1] 104 % of control | [2] 97 % of control

CO[C](=O)[Hg][c]1ccc(N=Cc2ccc(N(C)C)cc2Cl)cc1
inactive: dose: 1.56 mg/kg/injection, schedule: Q01DX001 (ip), vehicle: saline with Tween-80 99 % of control | dose: 3.13 mg/kg/injection, schedule: Q01DX001 (ip), vehicle: saline with Tween-80 103 % of control | dose: 6.25 mg/kg/injection, schedule: Q01DX001 (ip), vehicle: saline with Tween-80 89 % of control

CC(=O)n1ccnc1/C=C\c1ccc([N+](=O)[O-])s1
inactive: [3] 103 % of control | [4] 101 % of control

CCCCCCCCNC(=O)c1ccc([N+](=O)[O-])s1
inactive: dose: 100.0 mg/kg/injection, schedule: Q01DX005 (ip), vehicle: saline 94 % of control | dose: 200.0 mg/kg/injection, schedule: Q01DX005 (ip), vehicle: saline 94 % of control | dose: 400.0 mg/kg/injection, schedule: Q01DX005 (ip), vehicle: saline 94 % of control

NC(=O)Cc1csc2ccccc12
inactive: [1] 101 % of control | [2] 106 % of control

CCOC(=O)/C=C/C(F)(F)C(F)(F)C(F)(F)C(F)(F)C(F)(F)C(F)(F)C(F)(F)F
inactive: [5] 98 % of control | [6] 105 % of control | dose: 400.0 mg/kg/injection, schedule: Q01DX009 (ip), vehicle: saline 105 % of control

O=C1CSC(=S)N1c1cccc(C(F)(F)F)c1
inactive: [7] 108 % of control | [8] 101 % of control | [9] 104 % of control

CCOc1ncnc2c1nnn2C1OC(CO)C(O)C1O (stereo not drawn)
inactive: dose: 12.5 mg/kg/injection, schedule: Q01DX001 (ip), vehicle: saline with Tween-80 105 % of control | dose: 25.0 mg/kg/injection, schedule: Q01DX001 (ip), vehicle: saline with Tween-80 107 % of control | dose: 50.0 mg/kg/injection, schedule: Q01DX001 (ip), vehicle: saline with Tween-80 105 % of control | [10] 104 % of control | [11] 105 % of control | [12] 108 % of control

CCCC(C)OP(=O)(OCC)OC(C)CC (stereo not drawn)
inactive: [13] 100 % of control | [14] 89 % of control

CCCCCCCCCCCCCCCCC(CCCCCCCCCCCCCCCC)C1CCCCC1
inactive: [10] 94 % of control | [11] 94 % of control | [12] 90 % of control

CC1C=CC(C)C(C(=O)c2ccccc2)C1C(=O)c1ccccc1 (stereo not drawn)
inactive: [13] 93 % of control | [15] 106 % of control | [3] 89 % of control | [14] 94 % of control | [16] 97 % of control | [4] 88 % of control | [17] 92 % of control | [18] 93 % of control | [19] 88 % of control

CCCCN(CCCC)N=Nc1c[nH]c(=O)[nH]c1=O
inactive: dose: 8.0 mg/kg/injection, schedule: Q01DX Z (ip), vehicle: carboxymethylcellulose (CMC) 114 % of control | dose: 16.0 mg/kg/injection, schedule: Q01DX Z (ip), vehicle: carboxymethylcellulose (CMC) 109 % of control

ClCN(CCl)CCl
inactive: dose: 50.0 mg/kg/injection, schedule: Q01DX001 (ip), vehicle: carboxymethylcellulose (CMC) 102 % of control | dose: 100.0 mg/kg/injection, schedule: Q01DX001 (ip), vehicle: carboxymethylcellulose (CMC) 94 % of control | dose: 200.0 mg/kg/injection, schedule: Q01DX001 (ip), vehicle: carboxymethylcellulose (CMC) 105 % of control

O=C(CNC(=O)Nc1ccc(Cl)c(Cl)c1)N/N=C/c1ccccc1F
inactive: [20] 93 % of control | [15] 89 % of control | [16] 89 % of control

COc1ccc(Cl)cc1NC(=O)Nc1cccc(C(C)=O)c1
inactive: [13] 102 % of control | [14] 93 % of control | [17] 90 % of control

COc1ccc(COC(=O)Nc2cccc(Cl)c2C)cc1
inactive: [10] 90 % of control | [15] 97 % of control and 98 % of control | [21] 95 % of control and 104 % of control | [7] 93 % of control | [11] 92 % of control | [16] 97 % of control and 89 % of control | [22] 101 % of control and 87 % of control | [8] 93 % of control | [12] 87 % of control | [18] 93 % of control | [23] 96 % of control and 101 % of control | [9] 96 % of control

NC(=O)c1ccc[n+]([O-])c1
inactive: [13] 104 % of control | [3] 100 % of control | [14] 100 % of control | [4] 100 % of control | [17] 98 % of control | [19] 94 % of control

CC1c2cccc(Cl)c2C(=O)c2c(Cl)cccc21
inactive: [13] 102 % of control | [3] 108 % of control | [14] 102 % of control | [4] 102 % of control | [17] 110 % of control | [19] 96 % of control

CC(=O)Nc1ccc2c(c1)C(N)c1ccccc1-2 (stereo not drawn)
inactive: dose: 88.0 mg/kg/injection, schedule: Q01DX Z (ip), vehicle: carboxymethylcellulose (CMC) 103 % of control | dose: 88.0 mg/kg/injection, schedule: Q01DX Z (ip), vehicle: saline 94 % of control | [1] 113 % of control | [5] 105 % of control | dose: 100.0 mg/kg/injection, schedule: Q04DX003 (ip), vehicle: saline 98 % of control | dose: 132.0 mg/kg/injection, schedule: Q01DX009 (ip), vehicle: saline with Tween-80 111 % of control | dose: 132.0 mg/kg/injection, schedule: Q01DX009 (ip), vehicle: saline 99 % of control | dose: 133.0 mg/kg/injection, schedule: Q01DX Z (ip), vehicle: carboxymethylcellulose (CMC) 92 % of control | dose: 133.0 mg/kg/injection, schedule: Q01DX Z (ip), vehicle: saline 98 % of control | [2] 113 % of control | [16] 118 % of control | [6] 108 % of control | dose: 200.0 mg/kg/injection, schedule: Q01DX Z (ip), vehicle: carboxymethylcellulose (CMC) 105 % of control | dose: 200.0 mg/kg/injection, schedule: Q04DX003 (ip), vehicle: saline 103 % of control | dose: 300.0 mg/kg/injection, schedule: Q01DX009 (ip), vehicle: saline 100 % of control | [24] 109 % of control | dose: 400.0 mg/kg/injection, schedule: Q04DX003 (ip), vehicle: saline 122 % of control

CC(C)(C)c1ccc(C(=O)C2CC2)cc1
inactive: [20] 90 % of control | [15] 92 % of control

Cc1cccc(C)c1NC(=O)COc1ccc(Cl)cc1
inactive: [13] 105 % of control | [3] 95 % of control | [14] 86 % of control | [4] 93 % of control | [17] 97 % of control | [19] 91 % of control

Cc1nc2ccccc2n1C
inactive: [15] 107 % of control

O=C(O)/C=C/C(=O)OCCO
inactive: dose: 75.0 mg/kg/injection, schedule: Q01DX001 (ip), vehicle: carboxymethylcellulose (CMC) 91 % of control | dose: 150.0 mg/kg/injection, schedule: Q01DX001 (ip), vehicle: carboxymethylcellulose (CMC) 86 % of control

CN1CN2c3ccccc3CCC2C2CCCC21 (stereo not drawn)
inactive: dose: 50.0 mg/kg/injection, schedule: Q04DX002 (ip), vehicle: saline with Tween-80 104 % of control | [21] 96 % of control | [22] 101 % of control

CC(CC(=O)c1ccc(F)cc1)N1CCOCC1 (stereo not drawn)
inactive: [1] 92 % of control | [2] 90 % of control

CC(C)/C(=N\N=C(\c1ccccc1)C(C)C)c1ccccc1
inactive: [21] 94 % of control | [22] 87 % of control | [23] 97 % of control

Cc1cc([N+](=O)[O-])cc([N+](=O)[O-])c1Cl
inactive: dose: 50.0 mg/kg/injection, schedule: Q01DX009 (ip), vehicle: Klucel (hydroxypropylcellulose) (HPC) 103 % of control | [13] 100 % of control | [3] 98 % of control | [4] 103 % of control

O=C(N/N=C/c1cc(Cl)ccc1[N+](=O)[O-])c1cccc2ccccc12
inactive: [2] 101 % of control | [24] 97 % of control
